These results are taken from ChEMBL document CHEMBL3124773, “Stereoselective preparation of pyridoxal 1,2,3,4-tetrahydro-β-carboline derivatives and the influence of their absolute and relative configuration on the proliferation of the malaria parasite Plasmodium falciparum” (Bioorg Med Chem, 2014).

The structures appear in SMILES notation. pIC50: −log10 of the molar value.

The test system of the assay is Plasmodium falciparum. Nature of the assay: Antiplasmodial activity against Plasmodium falciparum 3D7 infected in human erythrocytes after 48 hrs by [3H]hypoxanthine incorporation assay. The class given is functional, organism-based.
In the case of `COC(=O)[C@@H]1Cc2c([nH]c3ccccc23)[C@@H](c2c(CO)cnc(C)c2O)N1`, the pIC50 was 4.66.
Consider `COC(=O)[C@H]1Cc2c([nH]c3ccccc23)[C@@H](c2c(CO)cnc(C)c2O)N1`, for which the negative-log IC50 (pIC50) was 3.97.
The value for `COC(=O)[C@H]1Cc2c([nH]c3ccccc23)[C@H](c2c(CO)cnc(C)c2O)N1` was 5.10; that for `COC(=O)C1Cc2c([nH]c3ccccc23)C(c2c(CO)cnc(C)c2O)N1` (stereo not given) was 4.85.
The value for `COC(=O)[C@@H]1Cc2c([nH]c3ccccc23)[C@H](c2c(CO)cnc(C)c2O)N1` was 4.04.
